From article PMC9484092, “Three novel leaderless bacteriocins have antimicrobial activity against gram-positive bacteria to serve as promising food biopreservative” (Microbial Cell Factories, 2022) come the findings set out here.

As usually defined, the MIC is the lowest concentration that inhibits growth of the organism. Higher therefore signals a need for much substance.

No end group written: not given here. *: point of attachment. For = O=C*

One data set concerns the target proteinase K (Parengyodontium album, UniProt P06873). Briefly: Protease stability, residual antimicrobial activity. It is filed as in vitro ADME. Particulars: 4× MIC mixed 1:1 (v/v) with proteinase K 1 mg/mL (≥ 40 U/mg), 37 °C, 2 h; agar well diffusion, B. cereus ATCC 14579; triplicate. Here is the method:
(§1) Antibacterial activity against various indicator strains were determined by the agar well diffusion method. Briefly, each of the indicator strains (10^6 CFU/mL) was spread on a LB agar plate (45 °C) with wells (diameter = 6 mm). Then, 50 μL bacteriocin solution was added to the wells. The plate was kept at 4 °C for 2 h and subsequently incubated at a temperature suitable for the growth of the indicator strains for 12 h, followed by the measurement of inhibition zone to assess the antimicrobial activity.
Nisin A was commercial nisin A (Sigma-Aldrich, Shanghai, China) purified by HPLC as described above. The purity of nisin A and thucin A1 was all greater than 95% based on the ratio of absorption peak area at 210 nm. The stability assay was performed by previously described method with some modifications. To compare the pH stability of thucin A1 and nisin A, the bacteriocin solutions (1× , 2× , 4× , 8× MIC) were adjusted to pH 2.0, 3.0, 4.0, 5.0, 6.0, 7.0, 8.0, 9.0, 10.0, 11.0 and 12.0 with 0.5 M NaOH or 0.5 M HCl solution, followed by incubation at 37 °C for 4 h. The residual antimicrobial activity was tested after neutralizing the sample to pH 6.0. […] The indicator strain used in this experiment was B. cereus ATCC 14579 and the antimicrobial activity was determined with the agar well diffusion method as described above. […]

In a further data set the test system is Bacillus firmus DS-1. It is filed as cell-based. Particulars: 2 h. Here is the method:
as §1
(§2) The minimum inhibitory concentrations (MICs) of the bacteriocins against various indicator strains were determined by a previously described method. Briefly, the antimicrobial activities of different final concentrations bacteriocin solutions were measured by the agar well diffusion method described above. The MIC was defined at the lowest concentration of samples that could form a clear zone of inhibition.

Data set [1] has as its system Glutamicibacter arilaitensis HCX33. The class given is cell-based. Particulars: 2 h. The protocol:
as §1, §2

Another data set concerns Bacillus pumilus SCG1. It is filed as cell-based. Particulars: 2 h. Here is the method:
as §1, §2

The test system of data set [2] is Lysinibacillus fusiformis ZZY15-1. It is filed as cell-based. Particulars: 2 h. Here is the method: as §1, §2
The next data set concerns Bacillus simplex SYY08. The class given is cell-based. Particulars: 2 h. The protocol:
as §1, §2

The test system of data set [3] is Bacillus thuringiensis BMB171. The class given is cell-based. Particulars: 2 h. The protocol: as §1, §2
The test system of data set [4] is Staphylococcus aureus ATCC 43300. The class given is cell-based. Particulars: ATCC 43300, 2 h. Here is the method:
as §1, §2

The next data set concerns Bacillus subtilis 168. The class given is cell-based. Particulars: 168, 2 h. The protocol: as §1, §2
For data set [5], the system named is Listeria monocytogenes LM605. The class given is cell-based. Particulars: LM605, 2 h. The protocol: as §1, §2
The subject of a further data set is Bacillus siamensis HCX05. It is filed as cell-based. Particulars: 2 h. Here is the method: as §1, §2
The test system of the next data set is Rhodococcus sp. ZCH08. It is filed as cell-based. Particulars: 2 h. The protocol:
as §1, §2

For a further data set, the system named is Bacillus cereus UW85. The class given is cell-based. Particulars: UW85, 2 h. The protocol:
as §1, §2

Data set [6] has as its system Listeria monocytogenes LM201. The class given is cell-based. Particulars: LM201, 2 h. Here is the method: as §1, §2
Data set [7] concerns Bacillus cereus ATCC 14579. The class given is cell-based. Particulars: ATCC 14579, 12 h. Here is the method:
as §1, §2

In a further data set the test system is Bacillus subtilis Bsn5. It is filed as cell-based. Particulars: Bsn5, 2 h. The protocol:
as §1, §2

Data set [8] has as its system Staphylococcus succinus SYY04. The class given is cell-based. Particulars: 2 h. The protocol: as §1, §2
In data set [9] the test system is Bacillus thuringiensis P86. Kind of data set: MIC, agar well diffusion. Particulars: Bacillus thuringiensis P86 (thucin A1 producer strain), LB, lowest concentration forming a clear zone, highest concentration 60 μM. The class given is cell-based. Here is the method: as §1, §2
Background: A growth-free zone around the sample is the usual read-out of agar diffusion tests.

proteinase K, sequence (P06873 106-384): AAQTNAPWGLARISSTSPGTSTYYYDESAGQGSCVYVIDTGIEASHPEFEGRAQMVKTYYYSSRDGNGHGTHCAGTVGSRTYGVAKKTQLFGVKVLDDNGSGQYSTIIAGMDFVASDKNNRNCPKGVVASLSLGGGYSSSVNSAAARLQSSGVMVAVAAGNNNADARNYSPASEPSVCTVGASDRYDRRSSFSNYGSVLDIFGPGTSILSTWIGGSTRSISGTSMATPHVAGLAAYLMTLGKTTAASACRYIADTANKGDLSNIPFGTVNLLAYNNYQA

Regarding “For-MIAFLRIVAQLGARAARWAWANKDRVLGWIRDGMAIDWIINKINDMVS [Thucin A1]”, on proteinase K, the “residual antimicrobial activity after digestion with proteinase K” value is “completely lost its antimicrobial activity”. The minimum inhibitory concentration (MIC) in the data set on Bacillus firmus DS-1 is 3.75 µM; in data set [1], 7.5 µM; in the data set with Bacillus pumilus SCG1, 3.75 µM; in data set [2], 7.5 µM; in the data set with Bacillus simplex SYY08, 1.88 µM; in data set [3] it was 1.88 µM. The MIC in [4] was found to be 15 µM; against Bacillus subtilis 168 it was 3.75 µM; in [5], 0.47 µM; in the data set with Bacillus siamensis HCX05, 3.75 µM; in the data set with Rhodococcus sp. ZCH08 it was 15 µM; with Bacillus cereus UW85 it was 1.88 µM. For the same substance, the MIC was determined as 0.47 µM in [6]; 1.88 µM in data set [7]; 3.75 µM against Bacillus subtilis Bsn5; 15 µM in data set [8]; 7.5 µM in data set [9].
